What was measured:
FmlHLD [1] = target: T1, FmlHLD (Escherichia coli, UniProt P77588); assay: biochemical; format: binding, E. coli
T1 construct: 6xHis (C); made in house; host or cells: E. coli C600, periplasm, pTRC99a
Procedure, shortened: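 Sialidase-treated bovine submaxillary mucin (ds-BSM) coated wells, BSA-blocked, then biotinylated FmlH^LD (20 μg/mL) with or without compound for 1 h at room temperature. Bound lectin detected by streptavidin-HRP/TMB, A450.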

FmlHLD [2] = target: T1, FmlHLD; assay: Immunofluorescence of FmlHLD binding to human bladder and kidney tissue; design: species or system E. coli; conditions: 50 μg/ml FmlHLD WT incubated with 100 μM compound
Method: The relevance of FmlH and FmlH-targeting galactosides in human UTI was assessed by performing immunofluorescence analysis of wild-type (WT) FmlHLD or mutant (K132Q) FmlHLD binding to human bladder and non-malignant kidney biopsied tissue in the presence or absence of 29β-NAc.
Frozen, de-identified human bladder and kidney sections were obtained from the Tissue Procurement Core and stored stably at −80° C. These tissue section slides were removed from the freezer and allowed to thaw at room temperature for 10-20 min. After applying a hydrophobic barrier pen around the tissue, slides were rehydrated in 200 μl buffer (5% BSA, 0.2% Triton X-100 in PBS) for 10 min. Buffer was gently aspirated and slides were blocked for 1 hr at room temperature with 200 μl buffer. Thereafter, buffer was gently aspirated and slides were incubated with 200 μl sample overnight at 4° C. Samples diluted in buffer included 50 μg/ml FmlHLD wild-type (WT), 50 μg/ml FmlHLD K132Q, and 50 μg/ml FmlHLD WT incubated with 100 μM 29β-NAc. Samples were gently aspirated and slides were washed three times in buffer for 5 min each. Next, slides were incubated with a mouse anti-FmlH polyclonal antibody (1:500 dilution in buffer) for 1 hr at room temperature. […]

FmlHLD [3] = target: T1, FmlHLD; assay: biochemical; format: binding, E. coli; conditions: for Kd: immobilized ser-TF
Source text: Bio-layer interferometry (BLI) was used to quantitate the binding affinity of select galactosides to FmlH.
Thereafter, pins were dipped in PBS for 120 s and transferred to protein samples (varying concentration of FmlHLD or fixed concentration of FmlHLD with varying concentration of galactoside compounds) for association for 300-600 s.

CFT073 = assay: Murine chronic UTI (chronic cystitis) model, bacterial titers in bladder and kidney; format: in vivo, C3H/HeN mice; conditions: 50 mg/kg transurethral, 6 hours post treatment, relative to vehicle control
Method: To assess therapeutic efficacy, galactosides were evaluated for their ability to reduce bacterial burdens in the urinary tracts of C3H/HeN mice during chronic UTI. 7-8 week old female C3H/HeN mice were obtained from Envigo (Indianapolis, IN). Mice were anesthetized and inoculated via transurethral catheterization with 50 μl of CFT073 bacterial suspension (˜1-2*10^8 CFU in total) in phosphate-buffered saline (PBS). Chronic cystitis in C3H/HeN mice was defined as urine titers of >10^4 CFU/ml lasting at least two to four weeks, as well as bladder inflammation and edema at euthanasia. […] Accordingly, high levels of CFT073 kidney colonization were also observed in control (vehicle-treated) animals. […] Compounds tested were: 29β-NAc (50 mg/kg), mannoside 4Z269 (a type 1 pilus adhesin FimH inhibitor, 50 mg/kg), or 29β-NAc+4Z269. Mice were sacrificed 6 hours post treatment and bacteria colonizing the bladder or kidney were plated for quantification. Data are presented in FIG. 9, panels A and B, as bacterial titers of CFT073 in each organ in each condition. The horizontal lines represent the means. Asterisks indicate significance (*P<0.05, **P<0.01, ***P<0.001, ****P<0.0001, two-tailed Mann-Whitney U test). Each condition was measured in two or three independent experiments with 4 or 5 mice per group per experiment.

[4] = target: T2, FmlH lectin domain (FmlH^LD; first 182 amino acids of CFT073 FmlH = signal sequence and lectin domain, C-terminal 6×-his tag, wild-type, biotinylated) (Escherichia coli, UniProt A0A0H2V7F6); assay: ELISA-based competition assay: inhibition of biotinylated FmlH lectin domain binding to surface-immobilized desialylated bovine submaxillary mucin (ds-BSM); design: species or system E. coli (uropathogenic, urosepsis isolate CFT073); conditions: read-out: FmlH (FmlH^LD) lectin domain (LD) IC50, FIG. 14, 20 μg/mL biotinylated FmlH^LD, compounds serially diluted 2×, 1 hour at room temperature, ds-BSM coated wells, absorbance 450 nm
T2 construct: biotinylated for ELISA; wild type
T2 sequence (A0A0H2V7F6 entry or part of it): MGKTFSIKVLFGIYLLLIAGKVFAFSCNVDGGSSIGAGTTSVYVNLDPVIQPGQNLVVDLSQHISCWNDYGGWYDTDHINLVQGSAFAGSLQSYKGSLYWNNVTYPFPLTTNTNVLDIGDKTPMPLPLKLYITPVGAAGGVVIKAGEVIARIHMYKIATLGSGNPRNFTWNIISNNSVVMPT
Method: Thereafter, wells were incubated with 200 μl blocking buffer (PBS+1% BSA) for 2 hours at 23° C., followed by incubation with 100 μl biotinylated FmlHLD diluted in blocking buffer to 20 μg/ml in the presence or absence of the tested compounds for 1 hr at 23° C. After washing 3× with PBS+0.05% TWEEN-20, 100 μl Streptavidin-HRP conjugate (BD Biosciences; 1:2000 dilution in blocking buffer) was added to each well for 1 hr at 23° C. After a final round of washing, plates were developed with 100 μl Tetramethylbenzidine (TMB, BD Biosciences) substrate, quenched within 1-2 min with 50 μl […], and absorbance measured at 450 nm.
Briefly, 1 μg bovine submaxillary mucin (Sigma) in 100 uL PBS were incubated with Immulon 4HBX 96-well plates overnight prior to treatment with 1 mU Arthrobacter ureafaciens sialidase for 1 hour at 37° C. to remove terminal sialic acid sugars. Wells were then blocked with 200 μL PBS+1% BSA for 2 hours at room temperature. Biotinylated FmlH^LD was diluted to 20 μg/mL in blocking buffer and incubated in the presence or absence of compounds serially diluted 2× down eight rows for 1 hour at room temperature. […] Total bound portion concentration was measured by the absorbance at 450 nm. IC50s were determined using the Graphpad Prism software.

T1 sequence (P77588 25-182): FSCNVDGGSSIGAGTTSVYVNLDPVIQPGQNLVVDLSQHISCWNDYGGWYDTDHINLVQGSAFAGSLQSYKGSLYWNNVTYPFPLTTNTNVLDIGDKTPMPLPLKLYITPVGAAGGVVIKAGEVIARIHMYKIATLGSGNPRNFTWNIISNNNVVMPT

| Compound | inhibitory potency against FmlH, in words (FmlHLD [1]; ELISA-based competition assay) | IC50 (FmlHLD [1]; IC50 (μM), Table 5, Gal and GalNAc inhibition of FmlH) [µM] | inhibition at 1 µM (FmlHLD [1]; read-out: PI1 (percent inhibition), galactoside at 1 μM, mean with standard error of the mean) [%] | inhibition at 10 µM (FmlHLD [1]; read-out: PI10 (percent inhibition), galactoside at 10 μM, mean with standard error of the mean) [%] | inhibition at 100 µM (FmlHLD [1]; read-out: PI100 (percent inhibition), galactoside at 100 μM, mean with standard error of the mean) [%] | FmlHLD binding to human kidney tissue (FmlHLD [2]) | enhancement in binding affinity relative to Gal (FmlHLD [3]; BLI Kd ratio) | Kd (FmlHLD [3]; Kd (μM), inhibitory constants, fixed FmlHLD, varying galactoside in solution) [µM] | Kd (FmlHLD [3]; Kd, galactoside in solution) [µM] | bacterial titers of CFT073 in the bladder (CFT073) | bacterial titers of CFT073 in the kidney (CFT073) | IC50 [4] [nM] |
| --- | --- | --- | --- | --- | --- | --- | --- | --- | --- | --- | --- | --- |
| CC(=O)N[C@H]1[C@H](Oc2ccccc2-c2cccc(C(=O)O)c2)O[C@H](CO)[C@H](O)[C@@H]1O [Compound 29β-NAc, 2′-(2-acetamido-2-deoxy-β-D-galactopyranosyloxy)-[1,1′-Biphenyl]-3-carboxylic acid] | most potent | 0.64 | 54.7 ± 2.8 | 93 | 99.5 ± 2.2 | prevented binding to human kidney tissue | ~7,800 fold | 0.089 | ~0.09 | significant reduction of CFT073 in the bladders | even greater clearance of CFT073 from the kidneys | – |
| CC(=O)N[C@H]1[C@H](Oc2ccccc2-c2cccc(C(=O)O)c2)O[C@H](CO)[C@H](O)[C@@H]1O [D00014 row 1, 2′-(2-acetamido-2-deoxy-β-D-galactopyranosyloxy)-[1,1′-Biphenyl]-3-carboxylic acid] | – | – | – | – | – | – | – | – | – | – | – | 650 |
